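Tested at 5 concentrations; 48 h exposure; 96-well plates; endpoints linearly interpolated, else capped at highest concentration. TGI: total growth inhibition.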
Experiments:
Assay in all cases: NCI anticancer screen, dose series, 48 h
[1] = test system: 786-0 renal
[2] = test system: A498 renal
[3] = test system: A549 NSCLC
[4] = test system: ACHN renal
[5] = test system: CAKI-1 renal
[6] = test system: CCRF-CEM leukemia
[7] = test system: COLO 205 colon
[8] = test system: DU-145 prostate
[9] = test system: EKVX NSCLC
[10] = test system: HCT-116 colon
[11] = test system: HCT-15 colon
[12] = test system: HL-60(TB) leukemia
[13] = test system: HOP-62 NSCLC
[14] = test system: HOP-92 NSCLC
[15] = test system: HS 578T breast
[16] = test system: HT29 colon
[17] = test system: IGROV1 ovarian
[18] = test system: K-562 leukemia
[19] = test system: KM12 colon
[20] = test system: LOX IMVI melanoma
[21] = test system: M14 melanoma
[22] = test system: MALME-3M melanoma
[23] = test system: MCF7 breast
[24] = test system: MDA-MB-231 breast
[25] = test system: MDA-MB-435
[26] = test system: MDA-N
[27] = test system: MOLT-4 leukemia
[28] = test system: NCI-H226 lung
[29] = test system: NCI-H23 lung
[30] = test system: NCI-H460 lung
[31] = test system: NCI-H522 lung
[32] = test system: NCI/ADR-RES ovarian
[33] = test system: OVCAR-3 ovarian
[34] = test system: OVCAR-4 ovarian
[35] = test system: OVCAR-5 ovarian
[36] = test system: OVCAR-8 ovarian
[37] = test system: PC-3 prostate
[38] = test system: RPMI-8226 leukemia
[39] = test system: RXF 393 renal
[40] = test system: SF-268 CNS
[41] = test system: SF-295 CNS
[42] = test system: SF-539 CNS
[43] = test system: SK-MEL-2 melanoma
[44] = test system: SK-MEL-28 melanoma
[45] = test system: SK-MEL-5 melanoma
[46] = test system: SK-OV-3 ovarian
[47] = test system: SN12C renal
[48] = test system: SNB-19 CNS
[49] = test system: SNB-75 CNS
[50] = test system: SR leukemia
[51] = test system: SW-620 colon
[52] = test system: TK-10 renal
[53] = test system: U251 CNS
[54] = test system: UACC-257 melanoma
[55] = test system: UACC-62 melanoma
[56] = test system: UO-31 renal

Measured: TGI

CCOC(=O)C1(C(=O)OCC)C[C@@H](C)[C@@H](O)C1
> 100 µM: all assays above

C=C/C(C)=C\CC1[C@](C)(O)CC[C@H]2C(C)(C)C(O)CC[C@]12C (stereo not given in full)
not listed: [13] | [46]
> 100 µM: all other assays above
